Tests used:
Type in all cases: in vivo, C57BL/6J male mice
TNF-α = test: Western blotting of TNF-α expression; details: DRH group vs NC group
Procedure: The amount of cytoplasmic and membrane proteins was quantified according to the Bradford method. Thereafter, a protein load was applied onto a 10% SDS-polyacrylamide gel, transferred to a Tris-glycine electrophoresis buffer for an hour, and then electrophoresed. The positions of the bands were confirmed using a Ponceau solution, blocking (5% skim milk in TBS/0.1% Tween-20) was performed at room temperature for 60 minutes in order to reduce non-specific reactions to the membrane. Then, the samples were reacted with a primary antibody overnight at 4° C. […]

gastrocnemius tissue = test: H&E and Sirius red staining of gastrocnemius tissue
Procedure: For morphological tissue observation, parts of liver and muscle tissues were fixed with a 10% formaldehyde solution for 24 hours. Thereafter, the samples were subjected to replacement with the same solution twice, dehydrated twice with ethanol, embedded in paraffin, and treated with poly-L-lysine to prepare tissue slices having a thickness of 5 μm. For morphological analysis, among the prepared tissue sections, the liver tissue was stained with H&E and MT, and the muscle tissue was stained with H&E and Sirius red, and magnified 200 times under an optical microscope. For IHC analysis, the muscle tissue was stained with IGF-1 and Myostatin, and then observed under an optical microscope.

[1] = system: Akt, AMPK, PI3K, mTOR, PGC1-α, and phosphorylated variants thereof; test: Western blotting of protein levels of muscle enhancement factors; details: DRH group vs NC group
Procedure: The amount of cytoplasmic and membrane proteins was quantified according to the Bradford method. Thereafter, a protein load was applied onto a 10% SDS-polyacrylamide gel, transferred to a Tris-glycine electrophoresis buffer for an hour, and then electrophoresed. The positions of the bands were confirmed using a Ponceau solution, blocking (5% skim milk in TBS/0.1% Tween-20) was performed at room temperature for 60 minutes in order to reduce non-specific reactions to the membrane. Then, the samples were reacted with a primary antibody overnight at 4° C.
Each of the antibodies was reacted with 5% skim milk diluted in the following ratios: Rabbit anti-mouse PGC1-α (1:1,000; Santa Cruz, USA), rabbit anti-mouse α-tubulin (1:1,000; Cell Signaling Technology, USA), rabbit anti-mouse p-Akt (1:1,000; Cell Signaling Technology, USA), rabbit anti-mouse Akt (1:1,000; Cell Signaling Technology, USA), rabbit anti-mouse p-PI3K (1:1,000; Cell Signaling Technology, USA), rabbit anti-mouse PI3K (1:1,000; Cell Signaling Technology), rabbit anti-mouse mTOR (1:1,000; Cell Signaling Technology, USA), rabbit anti-mouse TNF-α (1:1,000; Cell Signaling Technology, USA), rabbit anti-mouse adiponectin (1:1,000; Cell Signaling Technology, USA), rabbit anti-mouse haptoglobin (1:1,000; Abcam, USA), rabbit anti-mouse SCD1 (1:1,000; Cell Signaling Technology, USA), goat anti-mouse CerS1 (1:1,000; Novus Biologicals Ltd., USA), and rabbit anti-mouse NF-κB (1:000; Cell Signaling Technology, USA). The protein bands were washed, and the membrane was then reacted with a primary antibody in a TBST buffer (25 mM Tris-base, 155 mM NaCl, 0.1% Tween-20) in the presence of anti-rabbit IgG (1:1,000; Amersham Ltd., UK) or anti-goat IgG (1:1,000; ABcam Inc., USA) secondary antibodies for 30 minutes, and reacted at room temperature for an hour. Then, the membrane was washed again with a TBST buffer for 30 minutes. Immunoreactive bands were developed on a film using an ECL kit (Pierce Chemical Co., IL) to check the bands in a final state.

SMILES: O=C(CO)[C@H](O)[C@H](O)[C@H](O)CO [DRH, D-ribo-2-hexulose]
- TNF-α expression (TNF-α): significantly decreased
- progression of fibrosis (Sirius red staining) (gastrocnemius tissue; DRH group): reduced to that of the YC group
- size of muscle fibers (H&E staining) (gastrocnemius tissue; reduction observed in NC group): improved
- protein level of AMPK and phosphorylated variant [1]: significantly increased
- protein level of Akt and phosphorylated variant [1]: significantly increased
- protein level of PGC1-α [1]: significantly increased
- protein level of PI3K and phosphorylated variant [1]: significantly increased
- protein level of mTOR and phosphorylated variant [1]: significantly increased
